# Results published in patent US12655116B2, “Substituted isophthalic acid diamides” (Bayer Aktiengesellschaft, priority 2020, dated 2026).
# Columns and labels:
# AMARE [1] = assay: Pre-emergence herbicidal action against AMARE; type: in vivo, Amaranthus retroflexus; details: Amaranthus retroflexus, 504 h, 100% = plants have died, 0% = like control plants; for pest or weed control at 320 g/ha: scored visually after 3 weeks
# How it was run: (§1)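 Seeds sown in sandy loam, soil-covered; compound sprayed on soil surface pre-emergence. Application: WP/EC, 600–800 l/ha, 0.2% wetting agent. Readout: visual % damage at 3 weeks.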
# ALOMY [2] = assay: Pre-emergence herbicidal action against ALOMY; type: in vivo, Alopecurus myosuroides; details: Alopecurus myosuroides, 504 h, pre-emergence; for pest or weed control at 80 g/ha: scored visually after 3 weeks vs untreated controls (100% = plants have died, 0% = like control plants); for pest or weed control at 320 g/ha: scored visually after 3 weeks, 100% = plants have died, 0% = like control plants
# How it was run: as §1
# SETVI [3] = assay: Pre-emergence herbicidal action against SETVI; type: in vivo, Setaria viridis; details: Setaria viridis, 504 h; for pest or weed control at 80 g/ha: dosage 80 g/ha; for pest or weed control at 320 g/ha: dosage 320 g/ha
# How it was run: as §1
# VIOTR [4] = assay: Post-emergence herbicidal action against VIOTR; type: in vivo, Viola tricolor; details: Viola tricolor, 504 h
# How it was run: (§2)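 Sandy loam, greenhouse; treatment 2–3 weeks after sowing, one-leaf stage. Aqueous suspension or emulsion from WP/EC sprayed on foliage (600–800 l/ha, 0.2% wetting agent). Readout: visual % action, ~3 weeks.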
# POLCO [5] = assay: Pre-emergence herbicidal action against POLCO; type: in vivo, Polygonum convolvulus; details: Fallopia convolvulus, 504 h; for pest or weed control at 320 g/ha: dosage 320 g/ha
# How it was run: as §1
# MATIN [6] = assay: Pre-emergence herbicidal action against MATIN; type: in vivo, Matricaria inodora; details: Tripleurospermum inodorum, 504 h; for pest or weed control at 80 g/ha: dosage 80 g/ha; for pest or weed control at 320 g/ha: dosage 320 g/ha
# How it was run: as §1
# VERPE [7] = assay: Pre-emergence herbicidal action against VERPE; type: in vivo, Veronica persica; details: Veronica persica, 504 h; for pest or weed control at 320 g/ha: dosage 320 g/ha
# How it was run: as §1
# STEME [8] = assay: Pre-emergence herbicidal action against STEME; type: in vivo, Stellaria media; details: Stellaria media, 504 h; for pest or weed control at 80 g/ha: dosage 80 g/ha; for pest or weed control at 320 g/ha: dosage 320 g/ha
# How it was run: as §1
# LOLRI = assay: Post-emergence herbicidal action against LOLRI; type: in vivo, Lolium rigidum; details: Lolium rigidum, 504 h, dosage 80 g/ha
# How it was run: as §2
# AVEFA [9] = assay: Pre-emergence herbicidal action against AVEFA; type: in vivo, Avena fatua; details: Avena fatua, 504 h, pre-emergence; for pest or weed control at 320 g/ha: scored visually after 3 weeks, 100% = plants have died, 0% = like control plants
# How it was run: as §1
# POLCO [10] = assay: Post-emergence herbicidal action against POLCO; type: in vivo, Polygonum convolvulus; details: Fallopia convolvulus, 504 h; for pest or weed control at 80 g/ha: dosage 80 g/ha
# How it was run: as §2
# VERPE [11] = assay: Post-emergence herbicidal action against VERPE; type: in vivo, Veronica persica; details: Veronica persica, 504 h
# How it was run: as §2
# AMARE [12] = assay: Post-emergence herbicidal action against AMARE; type: in vivo, Amaranthus retroflexus; details: Amaranthus retroflexus, 504 h, visual assessment about 3 weeks after treatment, 100% = plants have died, 0% = like control plants
# How it was run: as §2
# STEME [13] = assay: Post-emergence herbicidal action against STEME; type: in vivo, Stellaria media; details: Stellaria media, 504 h
# How it was run: as §2
# ECHCG [14] = assay: Pre-emergence herbicidal action against ECHCG; type: in vivo, Echinochloa crus-galli; details: Echinochloa crus-galli, 504 h
# How it was run: as §1
# ECHCG [15] = assay: Post-emergence herbicidal action against ECHCG; type: in vivo, Echinochloa crus-galli; details: Echinochloa crus-galli, 504 h; for pest or weed control at 80 g/ha: dosage 80 g/ha
# How it was run: as §2
# MATIN [16] = assay: Post-emergence herbicidal action against MATIN; type: in vivo, Matricaria inodora; details: Tripleurospermum inodorum, 504 h; for pest or weed control at 20 g/ha: dosage 20 g/ha; for pest or weed control at 80 g/ha: dosage 80 g/ha
# How it was run: as §2
# HORMU [17] = assay: Post-emergence herbicidal action against HORMU; type: in vivo, Hordeum murinum; details: Hordeum murinum, 504 h; for pest or weed control at 20 g/ha: dosage 20 g/ha; for pest or weed control at 80 g/ha: dosage 80 g/ha
# How it was run: as §2
# AVEFA [18] = assay: Post-emergence herbicidal action against AVEFA; type: in vivo, Avena fatua; details: Avena fatua, 504 h, visual assessment about 3 weeks after treatment, 100% = plants have died, 0% = like control plants
# How it was run: as §2
# VIOTR [19] = assay: Pre-emergence herbicidal action against VIOTR; type: in vivo, Viola tricolor; details: Viola tricolor, 504 h; for pest or weed control at 80 g/ha: dosage 80 g/ha; for pest or weed control at 320 g/ha: dosage 320 g/ha
# How it was run: as §1
# SETVI [20] = assay: Post-emergence herbicidal action against SETVI; type: in vivo, Setaria viridis; details: Setaria viridis, 504 h; for pest or weed control at 80 g/ha: dosage 80 g/ha
# How it was run: as §2
# ALOMY [21] = assay: Post-emergence herbicidal action against ALOMY; type: in vivo, Alopecurus myosuroides; details: Alopecurus myosuroides, 504 h, visual assessment about 3 weeks after treatment vs untreated controls; for pest or weed control at 20 g/ha: dosage 20 g/ha; for pest or weed control at 80 g/ha: dosage 80 g/ha
# How it was run: as §2
# HORMU [22] = assay: Pre-emergence herbicidal action against HORMU; type: in vivo, Hordeum murinum; details: Hordeum murinum, 504 h, pre-emergence
# How it was run: as §1
# [23] = scored visually after 3 weeks vs untreated controls
compound,measurement,setting,value
CCNC(=O)c1c(C(F)F)ccc(C(=O)Nc2nnnn2CC)c1Cl [Example 2-148],pest or weed control at 80 g/ha,AMARE [1]; [23],100%
same,pest or weed control at 320 g/ha,AMARE [1],100%
same,pest or weed control at 80 g/ha,ALOMY [2],90%
same,pest or weed control at 320 g/ha,ALOMY [2],100%
same,pest or weed control at 80 g/ha,SETVI [3],100%
same,pest or weed control at 320 g/ha,SETVI [3],100%
same,pest or weed control at 80 g/ha,VIOTR [4],80%
same,pest or weed control at 320 g/ha,POLCO [5],100%
same,pest or weed control at 80 g/ha,MATIN [6],100%
same,pest or weed control at 320 g/ha,MATIN [6],100%
same,pest or weed control at 80 g/ha,VERPE [7]; dosage 80 g/ha,80%
same,pest or weed control at 320 g/ha,VERPE [7],100%
same,pest or weed control at 80 g/ha,STEME [8],90%
same,pest or weed control at 320 g/ha,STEME [8],100%
same,pest or weed control at 80 g/ha,LOLRI,80%
same,pest or weed control at 80 g/ha,AVEFA [9],100%
same,pest or weed control at 320 g/ha,AVEFA [9],100%
same,pest or weed control at 20 g/ha,POLCO [10]; dosage 20 g/ha,90%
same,pest or weed control at 80 g/ha,POLCO [10],90%
same,pest or weed control at 20 g/ha,VERPE [11]; 20 g/ha,80%
same,pest or weed control at 80 g/ha,VERPE [11],90%
same,pest or weed control at 20 g/ha,AMARE [12],90%
same,pest or weed control at 80 g/ha,AMARE [12],90%
same,pest or weed control at 20 g/ha,STEME [13],80%
same,pest or weed control at 80 g/ha,STEME [13],80%
same,pest or weed control at 80 g/ha,ECHCG [14],100%
same,pest or weed control at 320 g/ha,ECHCG [14],100%
same,pest or weed control at 20 g/ha,ECHCG [15]; dosage 20 g/ha,80%
same,pest or weed control at 80 g/ha,ECHCG [15],90%
same,pest or weed control at 20 g/ha,MATIN [16],90%
same,pest or weed control at 80 g/ha,MATIN [16],90%
same,pest or weed control at 20 g/ha,HORMU [17],80%
same,pest or weed control at 80 g/ha,HORMU [17],90%
same,pest or weed control at 20 g/ha,AVEFA [18],90%
same,pest or weed control at 80 g/ha,AVEFA [18],90%
same,pest or weed control at 80 g/ha,VIOTR [19],100%
same,pest or weed control at 320 g/ha,VIOTR [19],100%
same,pest or weed control at 80 g/ha,SETVI [20],80%
same,pest or weed control at 20 g/ha,ALOMY [21],80%
same,pest or weed control at 80 g/ha,ALOMY [21],90%
same,pest or weed control at 80 g/ha,HORMU [22],90%
same,pest or weed control at 320 g/ha,HORMU [22],100%
CCCn1nnnc1NC(=O)c1ccc(C(F)(F)F)c(C(=O)NC)c1Cl [Example 3-129],pest or weed control at 20 g/ha,"AMARE [1]; 20 g/ha, scored visually after 3 weeks vs untreated controls",100%
same,pest or weed control at 80 g/ha,AMARE [1]; [23],100%
same,pest or weed control at 320 g/ha,AMARE [1],100%
same,pest or weed control at 80 g/ha,ALOMY [2],80%
same,pest or weed control at 320 g/ha,ALOMY [2],100%
same,pest or weed control at 80 g/ha,SETVI [3],90%
same,pest or weed control at 320 g/ha,SETVI [3],100%
same,pest or weed control at 5 g/ha,VIOTR [4]; 5 g/ha,80%
same,pest or weed control at 20 g/ha,VIOTR [4]; 20 g/ha,90%
same,pest or weed control at 80 g/ha,VIOTR [4],100%
same,pest or weed control at 80 g/ha,POLCO [5]; dosage 80 g/ha,80%
same,pest or weed control at 320 g/ha,POLCO [5],100%
same,pest or weed control at 20 g/ha,MATIN [6]; dosage 20 g/ha,90%
same,pest or weed control at 80 g/ha,MATIN [6],100%
same,pest or weed control at 320 g/ha,MATIN [6],100%
same,pest or weed control at 320 g/ha,VERPE [7],100%
same,pest or weed control at 20 g/ha,STEME [8]; dosage 20 g/ha,90%
same,pest or weed control at 80 g/ha,STEME [8],100%
same,pest or weed control at 320 g/ha,STEME [8],100%
same,pest or weed control at 80 g/ha,LOLRI,80%
same,pest or weed control at 80 g/ha,AVEFA [9],100%
same,pest or weed control at 320 g/ha,AVEFA [9],100%
same,pest or weed control at 80 g/ha,POLCO [10],90%
same,pest or weed control at 80 g/ha,VERPE [11],80%
same,pest or weed control at 20 g/ha,AMARE [12],100%
same,pest or weed control at 80 g/ha,AMARE [12],100%
same,pest or weed control at 20 g/ha,STEME [13],100%
same,pest or weed control at 80 g/ha,STEME [13],100%
same,pest or weed control at 5 g/ha,STEME [13]; dosage 5 g/ha,100%
same,pest or weed control at 80 g/ha,ECHCG [14],80%
same,pest or weed control at 320 g/ha,ECHCG [14],100%
same,pest or weed control at 80 g/ha,ECHCG [15],100%
same,pest or weed control at 5 g/ha,MATIN [16]; dosage 5 g/ha,100%
same,pest or weed control at 20 g/ha,MATIN [16],100%
same,pest or weed control at 80 g/ha,MATIN [16],100%
same,pest or weed control at 20 g/ha,HORMU [17],90%
same,pest or weed control at 80 g/ha,HORMU [17],100%
same,pest or weed control at 20 g/ha,AVEFA [18],100%
same,pest or weed control at 80 g/ha,AVEFA [18],100%
same,pest or weed control at 20 g/ha,VIOTR [19]; dosage 20 g/ha,100%
same,pest or weed control at 80 g/ha,VIOTR [19],100%
same,pest or weed control at 320 g/ha,VIOTR [19],100%
same,pest or weed control at 20 g/ha,SETVI [20]; dosage 20 g/ha,100%
same,pest or weed control at 80 g/ha,SETVI [20],100%
same,pest or weed control at 20 g/ha,ALOMY [21],80%
same,pest or weed control at 80 g/ha,ALOMY [21],100%
same,pest or weed control at 80 g/ha,HORMU [22],90%
same,pest or weed control at 320 g/ha,HORMU [22],100%
